Results: patent publication US8841132B2, “Method for detecting compounds containing sulfenic acid using a 1,3-cyclohexanedione-based probe” (Wake Forest University Health Sciences, priority 2004, dated 2014)

Tests used:
[1] = biological target: T1, sulfenic acid form of C165S AhpC (Salmonella typhimurium, UniProt P0A251, C166S); experiment: Labeling of sulfenic acid-containing C165S AhpC, adducts analysed by ESI-MS; assay type: biochemical; details: for Observed increase in mass of product compared with R—SH form / covalent adduct formation with the sulfenic acid form of the peroxidase: ESI-MS, 5 mM reagent; for Observed increase in mass of product compared with R—SH form: 60 min, room temperature; for covalent adduct formation with the sulfenic acid form of the peroxidase: aqueous neutral pH buffer; for labeling of the protein when 1:1 mixtures of 6 and 7 are added: ESI-MS of intact proteins
T1 construct: made in house
T1 sequence (P0A251 whole entry C166S): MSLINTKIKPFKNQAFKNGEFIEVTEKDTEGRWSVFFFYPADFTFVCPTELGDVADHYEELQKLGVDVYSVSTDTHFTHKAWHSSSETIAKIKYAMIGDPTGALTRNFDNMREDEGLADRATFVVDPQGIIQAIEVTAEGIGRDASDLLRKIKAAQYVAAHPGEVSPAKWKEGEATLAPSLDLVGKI
Protocol: (§1) Reactivity of new compounds toward cysteine sulfenic acids in proteins. To test for the reactivity of 6 and 7 toward protein sulfenic acids, a mutant, cysteine-dependent peroxidase enzyme was used in which the oxidized, sulfenic acid form of the cysteinyl redox center is stabilized, yet accessible (the C165S mutant of AhpC from Salmonella typhimurium, a peroxiredoxin) (3, 9, 14).
[drawing 11] washed proteins following incubations with the labeling agents (FIG. 1 and data not shown). As illustrated in FIG. 1 and summarized in Table 1, mass spectrometry results were completely consistent with the expected reactivity and products generated with the sulfenic acid-containing protein using dimedone, 1,3-cyclohexadione and our two new labeling agents (6 and 7). […] Under the conditions used, the sulfenic acid form of the protein either reacts with the reagent or is further oxidized during the workup or analysis of the sample, and is therefore not observed. In a subsequent experiment
Generation of pure, sulfenic acid-containing C165S AhpC. The C165S mutant of AhpC was expressed in bacteria and purified in the presence of 5 mM 1,4-dithiothreitol (added to all buffers) essentially as described previously (9). Purification of wild type AhpC was also carried out as previously described (10). For generation of the sulfenic acid form of C165S AhpC, thawed enzyme in 25 mM phosphate buffer at pH 7, containing 1 mM EDTA, was washed free of the dithiothreitol and transferred into fresh buffer using a PD-10 column (Amersham Biosciences), and pooled fractions were transferred to an anerobic cuvette. The protein solution (160 nmol in 0.60 mL) was made anaerobic by repeated cycles of argon and vacuum over about 30 min, then rapidly titrated with 11 mM hydrogen peroxide to give a maximal absorbance signal at ˜367 nm for the sulfenate anion as described previously (3, 4). In subsequent experiments, optimal sulfenic acid formation was observed by adding and mixing the hydrogen peroxide much more slowly (additions of about 0.05 eq and thorough mixing every ˜1 min) and quantitating the sulfenic acid formed using a freshly-prepared 2-nitro-5-thiobenzoate (TNB) solution (0.28 mL) and a 60 μL aliquot of the protein removed anaerobically from the cuvette (3, 4). Using this method, ˜73% of the protein was converted to the sulfenic acid form after addition of 1.08 eq of hydrogen peroxide. Protein was kept in the anaerobic cuvette at room temperature for several hours before conducting experiments with no loss in sulfenic acid content.
(§2) Labeling of sulfenic acid-containing C165S AhpC for spectral and mass spectrometric analysis. The pure, oxidized enzyme (32 μL, 6 nmol each) from the anaerobic cuvette was added to argon-flushed 500 μL Eppendorf tubes containing the compound of choice (either dimethylsulfoxide alone, or dimethylsulfoxide into which dimedone, 1,3-cyclohexanedione, 6 or 7 had been dissolved) to give a final concentration of 5 mM for the added reagent in final volumes of 50 μL, and the tubes were flushed again with argon before closing. Other redox forms of C165S AhpC or the wild-type enzyme were also tested for reactivity with one or more of these four compounds. Approximate 100 mM stock solutions of 6 or 7 in dimethylsulfoxide were standardized using expected extinction coefficients of 5,700 or 25,000 M^−1 cm^−1, respectively, for the esterified isatoic acid conjugate or the methoxycoumarin conjugate in methanol (11). Samples were incubated at room temperature for 60 min, then transferred to Apollo ultrafiltration devices (30K cutoff, Orbital Biosciences, Topsfield, Mass.), washed with 5.5 mL 10 mM ammonium bicarbonate and reconcentrated to about 50 μL, for a total of four washes (>10^8-fold dilution of the initial small molecule components).
Mass spectrometric and spectral analyses of adducts with the sulfenic acid-containing form of C165S AhpC. […]

[2] = system: thiol, disulfide or hyperoxidized forms of AhpC (wild type or C165S); experiment: Control reactions with other redox forms of AhpC (ESI-MS adduct detection); assay type: biochemical, Salmonella typhimurium; details: for reaction with protein amine groups: reduced or oxidized wild type or reduced C165S AhpC; for reactivity of thiol, disulfide or hyperoxidized forms of AhpC (ESI-MS-detectable adduct formation): wild type or C165S
Excerpt: as §1
The thiol group of the reduced protein and the oxidized, disulfide-bonded form of wild type AhpC were also unreactive toward these compounds, as confirmed by electrospray ionization mass spectrometry (ESI-MS) of the ammonium bicarbonate-washed
(§3) Specificity of fluorescent, cyclohexadione-derived regents toward sulfenic acids in proteins. The known reactivity of the nucleophilic center of dimedone is toward cysteine sulfenic acids and aldehydes (15, 16). […] To test for general cross-reactivity of these reagents with other oxidized sulfur-containing functional groups, we tested the reactivity of dimedone, as a model reagent, with a S-nitrosothiol and two sulfoxides.
as §2

[3] = Cross-reactivity with S-nitrosothiol (absorbance spectroscopy); details: one hour, room temperature
Excerpt: as §3

[4] = Cross-reactivity with sulfoxide (NMR, spectroscopic and chemical isolation); details: aqueous solution
Excerpt: as §3

[5] = Control reaction with aldehyde
[6] = Control reaction with amine
[7] = cited from earlier work

Structure (SMILES) | reactivity toward cysteine sulfenic acids relative to dimedone [1] | Observed increase in mass of product compared with R—SH form [1] [amu] | covalent adduct formation with the sulfenic acid form of the peroxidase [1] | labeling of the protein when 1:1 mixtures of 6 and 7 are added [1] | reaction with protein amine groups [2] | reactivity of thiol, disulfide or hyperoxidized forms of AhpC (ESI-MS-detectable adduct formation) [2] | reaction with S-nitrosoglutathione [3] | reaction with dimethyl sulfoxide [4] | reaction with methionine sulfoxide [4] | reaction with butyraldehyde ([5]; in the presence of piperidine, 50° C., aqueous ethanol) | reaction with butyraldehyde ([5]; room temperature, absence of base) | reaction with benzylamine ([6]; aqueous ethanol) | reaction with benzylamine ([6]; organic solvent) | pka of active methylene group [7]
O=C1CCCC(=O)C1 [1,3-cyclohexadione, 1,3-cyclohexanedione] | at least equivalent reactivity | 109.2 |  |  |  |  |  |  |  |  |  |  |  | 
CNc1ccccc1C(=O)OCCCC1CCC(=O)CC1=O (stereo not shown) [compound 6, 3-(2,4-Dioxocyclohexyl)propyl 2-(methylamino)benzoate] |  | 300.7 | gave covalent adducts | approximately equal labeling | do not react | lack of reactivity |  |  |  |  |  |  |  | 
COc1ccc2cc(NC(=O)OCCCC3CCC(=O)CC3=O)c(=O)oc2c1 (stereo not shown) [compound 7, 3-(2,4-Dioxocyclohexyl)propyl 7-methoxy-2-oxo-2H-chromen-3-ylcarbamate] |  | 384.5 | gave covalent adducts | approximately equal labeling | do not react | lack of reactivity |  |  |  |  |  |  |  | 
CC1(C)CC(=O)CC(=O)C1 [dimedone, 5,5-dimethyl-1,3-cyclohexanedione] |  | 137.3 |  |  |  | lack of reactivity | fails to react | does not react | does not react | reacts | fails to react | no reaction occurs | condenses with benzylamine to form an imine | 5.15
